# Measurements from article PMC3729039 (Molecular cancer therapeutics, 2013).
# Experiments:
# PC3 cells = experiment: Viability assay, PC3; type: cell-based, human; conditions: PC3, treated for 3 days
# [1] = test system: PSA, FKBP5 and TMPRSS2 transcripts; experiment: qRT-PCR of androgen-regulated genes in VCaP cells; type: cell-based; conditions: 10 µM, 1 nM R1881, 16 hours
# LNCaP95 cells = experiment: LNCaP95 cell growth/viability
# [2] = test system: seminal vesicles (androgen-dependent tissue); experiment: In vivo effects on androgen-dependent tissue in intact male mice; design: species or system NOD-SCID mice; conditions: mature male mice, 10 mg/kg oral gavage, 13 daily doses
# [3] = target: T1, full-length human progesterone receptor-beta (PRβ) (Homo sapiens, UniProt P06401); experiment: PR transcriptional activity, PRE luciferase reporter in LNCaP cells; type: cell-based; conditions: 10 µM, 10 nM 4-pregnene-3,20 dione, 48 hours
# T1 sequence (P06401 1-933): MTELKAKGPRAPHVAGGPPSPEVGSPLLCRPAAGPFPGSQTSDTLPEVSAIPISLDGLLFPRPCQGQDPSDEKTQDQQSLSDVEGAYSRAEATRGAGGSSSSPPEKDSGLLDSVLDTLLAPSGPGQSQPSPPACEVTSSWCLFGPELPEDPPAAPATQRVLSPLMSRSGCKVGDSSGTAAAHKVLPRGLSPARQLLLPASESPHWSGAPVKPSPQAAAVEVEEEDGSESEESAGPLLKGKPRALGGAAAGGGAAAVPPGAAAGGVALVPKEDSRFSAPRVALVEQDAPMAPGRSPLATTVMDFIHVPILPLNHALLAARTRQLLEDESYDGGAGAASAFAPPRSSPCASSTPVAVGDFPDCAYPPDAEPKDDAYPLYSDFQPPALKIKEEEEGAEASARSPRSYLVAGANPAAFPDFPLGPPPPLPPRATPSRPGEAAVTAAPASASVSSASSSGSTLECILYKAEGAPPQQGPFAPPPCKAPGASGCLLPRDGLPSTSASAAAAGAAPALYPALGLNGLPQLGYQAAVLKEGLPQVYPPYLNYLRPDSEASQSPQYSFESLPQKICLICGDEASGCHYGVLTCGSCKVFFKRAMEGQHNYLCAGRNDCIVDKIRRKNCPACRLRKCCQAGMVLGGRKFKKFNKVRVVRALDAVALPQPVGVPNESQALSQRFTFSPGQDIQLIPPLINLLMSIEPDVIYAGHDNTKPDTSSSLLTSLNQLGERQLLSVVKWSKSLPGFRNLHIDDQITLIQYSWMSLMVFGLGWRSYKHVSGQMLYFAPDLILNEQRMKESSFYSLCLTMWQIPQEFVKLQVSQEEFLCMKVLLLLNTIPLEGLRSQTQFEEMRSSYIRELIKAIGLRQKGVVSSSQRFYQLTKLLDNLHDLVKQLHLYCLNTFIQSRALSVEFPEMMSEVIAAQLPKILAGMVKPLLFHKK
# VCaP cells = experiment: Viability assay, VCaP; type: cell-based; conditions: VCaP (wild-type AR), treated for 5 days
# [4] = target: T2, full-length human glucocorticoid receptor (GR) (Homo sapiens, UniProt P04150); experiment: GR transcriptional activity, GRE reporter in LNCaP cells; conditions: 10 µM, 10 nM dexamethasone, 48 hours
# T2 sequence (P04150 1-777): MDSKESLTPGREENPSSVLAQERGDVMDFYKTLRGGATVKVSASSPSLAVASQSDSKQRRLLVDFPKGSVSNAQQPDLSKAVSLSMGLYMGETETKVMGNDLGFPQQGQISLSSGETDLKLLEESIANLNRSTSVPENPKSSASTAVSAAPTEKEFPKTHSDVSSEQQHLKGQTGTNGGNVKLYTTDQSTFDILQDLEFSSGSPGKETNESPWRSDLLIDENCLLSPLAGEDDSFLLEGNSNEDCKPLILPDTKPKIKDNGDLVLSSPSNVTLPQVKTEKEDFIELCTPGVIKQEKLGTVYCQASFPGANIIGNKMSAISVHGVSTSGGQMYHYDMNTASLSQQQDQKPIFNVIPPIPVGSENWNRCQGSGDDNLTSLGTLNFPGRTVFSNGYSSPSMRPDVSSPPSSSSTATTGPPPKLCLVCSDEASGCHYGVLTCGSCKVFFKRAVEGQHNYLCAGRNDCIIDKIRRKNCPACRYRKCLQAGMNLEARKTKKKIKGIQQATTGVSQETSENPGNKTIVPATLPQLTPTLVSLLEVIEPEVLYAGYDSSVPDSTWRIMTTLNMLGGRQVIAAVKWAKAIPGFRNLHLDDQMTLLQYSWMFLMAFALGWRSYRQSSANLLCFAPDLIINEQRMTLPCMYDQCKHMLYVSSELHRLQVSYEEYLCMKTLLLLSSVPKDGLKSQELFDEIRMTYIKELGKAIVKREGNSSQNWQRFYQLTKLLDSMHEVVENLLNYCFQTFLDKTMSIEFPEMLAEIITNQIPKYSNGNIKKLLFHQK
# recombinant human PR LBD = target: T3, recombinant human PR LBD (Homo sapiens, UniProt P06401); experiment: In vitro ligand competitor assay; type: binding
# T3 sequence (P06401 679-913 limits assumed): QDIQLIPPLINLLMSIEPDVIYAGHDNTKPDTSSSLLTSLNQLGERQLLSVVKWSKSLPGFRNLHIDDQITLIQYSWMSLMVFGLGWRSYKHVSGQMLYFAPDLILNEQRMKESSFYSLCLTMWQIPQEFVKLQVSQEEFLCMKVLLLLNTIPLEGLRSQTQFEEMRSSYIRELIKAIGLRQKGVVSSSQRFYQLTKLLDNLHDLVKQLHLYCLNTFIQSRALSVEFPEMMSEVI
# LNCaP cells = experiment: Viability assay, LNCaP; type: cell-based, human; conditions: treated for 4 days
# [5] = target: recombinant human full-length ERα (Homo sapiens, UniProt P03372); experiment: In vitro ligand competitor assay; type: binding; conditions: fluorescence polarization competitor assay
# Sequence of recombinant human full-length ERα (P03372 whole entry): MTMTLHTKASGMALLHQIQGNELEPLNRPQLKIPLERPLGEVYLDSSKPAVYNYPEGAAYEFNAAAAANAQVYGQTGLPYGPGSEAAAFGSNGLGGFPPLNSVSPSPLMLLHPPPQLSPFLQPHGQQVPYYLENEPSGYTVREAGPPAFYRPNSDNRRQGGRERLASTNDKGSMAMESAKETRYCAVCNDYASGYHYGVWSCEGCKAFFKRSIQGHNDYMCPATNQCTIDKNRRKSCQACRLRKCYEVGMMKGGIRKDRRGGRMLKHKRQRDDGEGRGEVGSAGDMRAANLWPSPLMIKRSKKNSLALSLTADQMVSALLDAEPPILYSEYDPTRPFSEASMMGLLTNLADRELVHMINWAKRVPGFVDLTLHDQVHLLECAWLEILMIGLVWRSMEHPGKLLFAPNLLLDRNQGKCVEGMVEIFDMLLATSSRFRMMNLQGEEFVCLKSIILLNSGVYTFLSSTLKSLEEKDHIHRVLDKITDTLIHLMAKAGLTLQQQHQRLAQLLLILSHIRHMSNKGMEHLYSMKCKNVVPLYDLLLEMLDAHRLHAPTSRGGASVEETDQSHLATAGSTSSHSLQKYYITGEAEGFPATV
# [6] = test system: LNCaP human prostate cancer cells; experiment: Androgen-dependent proliferation of LNCaP cells; type: cell-based; conditions: 0.1 nM R1881
# [7] = test system: PC3 human prostate cancer cells; experiment: Proliferation of PC3 cells; type: cell-based; conditions: PC3, 0.1 nM R1881
Structure (SMILES),cytotoxicity (viability assay) (PC3 cells),effect on androgen-induced levels of PSA transcript [1],effect on androgen-induced levels of transcript for FKBP5 and TMPRSS2 [1],effect on cell growth/viability (LNCaP95 cells),testes weight [2],effect on PR transcriptional activity induced by Preg [3],cytotoxicity (viability assay) (VCaP cells),effect on transcriptional activity of GR induced by dexamethasone [4],EC50 (recombinant human PR LBD) [µM],cytotoxicity (viability assay) (LNCaP cells),competition with fluoromone for ERα [5],effect of androgen on proliferation [6],effect of androgen on proliferation [7]
"CC(O)(CS(=O)(=O)c1ccc(F)cc1)C(=O)Nc1ccc(C#N)c(C(F)(F)F)c1 (stereo not drawn) [BIC, bicalutamide]",no indication of cytotoxicity,neither BIC or any of the diterpenoids significantly reduced these levels,significantly blocked,not altered,no effect on the weight of testis,inhibited,no indication of cytotoxicity,had no effect,5.1,no indication of cytotoxicity,,,
C[C@]1(O)CC[C@H]2[C@@H]3CCC4=CC(=O)CCC4=C3C=C[C@@]21C [R1881],,,,not altered,,,,,,,"none of the AR ligands (R1881, BIC and the diterpenoids) were efficient in competing",led to increased proliferation,did not alter their proliferation
CC#C[C@]1(O)CC[C@H]2[C@@H]3CCC4=CC(=O)CCC4=C3[C@@H](c3ccc(N(C)C)cc3)C[C@@]21C [RU486],,,,,,inhibited,,,,,,,
